Measurements from patent publication US11679065B2, “Compositions with sulfur having enhanced efficacy and aesthetics” (The Procter & Gamble Company, priority 2020, dated 2023).

What was measured:
Malassezia [1] = conditions: fungus that causes dandruff (Malassezia); known range; cited from earlier work
Malassezia [2] = experiment: Minimal inhibitory concentration of sulfur (known value); assay type: cell-based; conditions: generally accepted MIC, gray box in FIGS. 1-4
Protocol: A dissolution and diffusion model is utilized to help dimension sulfur solubility in sebum over a 24 hour period. The model predicts where sulfur concentration will rise above the minimal inhibitory concentration (MIC is known to be in the range of 10-50 ppm for sulfur), for the fungus that causes dandruff (Malassezia). The model factors in sulfur dissolution varying sebum thickness and sebum production rate over the 24 hour period as well as a loss term for sulfur migration into the scalp/stratum corneum. FIGS. 1-4) show simulation outputs for mean sulfur particles sizes, 2, 34, 100 and 150 micron sulfur particles respectively wherein each graph is a compilation of curves representing variations in initial sebum thickness and production rate. The gray box in each figure represents a range of sulfur concentrations that encompass the generally accepted MIC (log 10(MIC) range is 1-1.7). It is observed from the simulations that as particle size increases, the approximate number of hours that sulfur concentration is above the MIC expands until the particle size of about 150 microns, wherein the dissolution of sulfur in sebum becomes the rate limiting step and the concentration of sulfur never exceeds the MIC needed for a dandruff benefit.

log 10(MIC) range (Malassezia [2]): 1-1.7
SMILES: S1SSSSSSS1 [Sulfur]
minimal inhibitory concentration (MIC) (Malassezia [1]): 10-50 ppm
